Data taken from PubChem BioAssay (NCI).
Values joined by “and” are separate entries in the source; they are usually repeats but may differ in a detail not shown here. Equal entries are not always repeated.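 Tested at 5 concentrations; 48 h exposure; 96-well plates; endpoints linearly interpolated, else capped at highest concentration. GI50 = concentration required for 50% inhibition of growth. TGI denotes the concentration required for complete inhibition of growth.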

Experiments:
Assay in all cases: NCI anticancer screen, dose series, 48 h
786-0 renal = test system: 786-0 renal
RPMI-8226 leukemia = test system: RPMI-8226 leukemia
HCT-15 colon = test system: HCT-15 colon
IGROV1 ovarian = test system: IGROV1 ovarian
SK-MEL-28 melanoma = test system: SK-MEL-28 melanoma
COLO 205 colon = test system: COLO 205 colon
A549 NSCLC = test system: A549 NSCLC
HCT-116 colon = test system: HCT-116 colon
KM12 colon = test system: KM12 colon
SK-MEL-5 melanoma = test system: SK-MEL-5 melanoma

Row | SMILES | TGI (786-0 renal) | TGI (RPMI-8226 leukemia) | TGI (HCT-15 colon) | TGI (IGROV1 ovarian) | TGI (SK-MEL-28 melanoma) | TGI (COLO 205 colon) | TGI (A549 NSCLC) | TGI (HCT-116 colon) | TGI (KM12 colon) | TGI (SK-MEL-5 melanoma) | GI50 (786-0 renal) | GI50 (KM12 colon) | GI50 (RPMI-8226 leukemia) | GI50 (HCT-15 colon) | GI50 (IGROV1 ovarian) | GI50 (SK-MEL-28 melanoma) | GI50 (SK-MEL-5 melanoma) | GI50 (COLO 205 colon) | GI50 (A549 NSCLC) | GI50 (HCT-116 colon)
1 | Cc1cc(=O)[nH]o1 | > 100 µM | > 100 µM | > 100 µM | > 100 µM | > 100 µM | > 100 µM | > 100 µM | > 100 µM |  |  |  |  |  |  |  |  |  |  |  | 
2 | COc1ccc(C(=O)C(C(=O)C(=O)Nc2ccc(Cl)c(Cl)c2)c2ccc(OC)cc2)cc1 (centres undefined) | > 100 µM | > 100 µM | > 100 µM | > 100 µM | > 100 µM |  | > 100 µM | > 100 µM | > 100 µM | > 100 µM |  |  |  |  |  |  |  |  |  | 
3 | COc1c(NC(C)=O)cc(C)cc1NC(C)=O | > 100 µM | > 100 µM | > 100 µM |  | > 100 µM | > 100 µM | > 100 µM | > 100 µM | > 100 µM | > 100 µM |  |  |  |  |  |  |  |  |  | 
4 | O=c1cc(N2CCNCC2)oc2c(-c3ccccc3)cccc12 | > 100 µM | 38.5 µM | > 100 µM | > 100 µM | > 100 µM | 27.8 µM | 76.2 µM |  | > 100 µM | 32.5 µM | 33.7 µM | 43.9 µM | 15.3 µM | 34.7 µM | 31.8 µM | 39.6 µM | 14.8 µM | 11.3 µM | 23.3 µM | 
5 | C/C1=C/C2=CC(C)C[C@@H]2C(=O)[C@]2(C)C(=O)CC(C)(C)[C@H]2CC1=O (some centres undefined) | > 50 µM | > 50 µM | > 50 µM | > 50 µM |  | > 50 µM | > 50 µM | > 50 µM | > 50 µM | > 50 µM |  |  |  |  |  |  |  |  |  | 
6 | CCOc1cc2c(cc1O)/C(=N\O)C[C@@H]1[C@@H]2CC[C@]2(C)[C@@H](O)CC[C@@H]12 | > 100 µM | 0.0632 µM | > 36.8 µM | > 100 µM | > 53.5 µM |  | > 100 µM |  |  | 1.32 µM and 10.2 µM | 0.015 µM | 0.0797 µM |  |  | 0.296 µM | 0.0143 µM | 0.00618 µM | 0.00176 µM | 0.0854 µM | 
7 | CN=C(NC#N)NCCSCc1nc[nH]c1C | > 100 µM |  | > 100 µM | > 100 µM | > 100 µM | > 100 µM | > 100 µM | > 100 µM | > 100 µM | > 100 µM |  |  |  |  |  |  |  |  |  | 
8 | CC(=O)O[C@H](C[C@H](C(C)C)N(C)C(=O)[C@@H](NC(=O)[C@H]1CCCCN1C)C(C)C)c1nc(C(=O)N[C@@H](Cc2ccccc2)C[C@H](C)C(=O)O)c(C(C)C)s1 | 9.51 µM | > 22.6 µM | > 33.3 µM | > 33.3 µM |  | < 0.033 µM | > 33.3 µM | 0.773 µM |  | 0.00641 µM | < 0.00333 µM | < 0.00333 µM | < 0.00333 µM | 0.0101 µM | < 0.00333 µM |  | < 0.00333 µM | < 0.00333 µM | 0.00495 µM | < 0.00333 µM
9 | COc1ccc2c(c1)[n+]([O-])c(-c1ccccc1)c(N)[n+]2[O-] | > 100 µM | > 100 µM | > 100 µM | > 100 µM | 69.3 µM | 44.4 µM | > 100 µM |  | > 100 µM | 35 µM |  |  |  |  |  |  |  |  |  | 
10 | Oc1ccc(O)c(-c2cc(-c3ccccc3)nn2-c2ccccc2)c1 | 25.2 µM |  | 42.6 µM | > 100 µM | > 100 µM | > 100 µM | 80.9 µM | 21.8 µM | > 100 µM | > 100 µM | 12.2 µM | 19.6 µM |  | 17 µM | > 100 µM | 40.8 µM | 30.7 µM | 24.9 µM | 17.3 µM | 9.71 µM
11 | CN[C@@H](C)[C@@H](N)c1ccccc1 | > 100 µM | > 100 µM | > 100 µM | > 100 µM | > 100 µM | > 100 µM | > 100 µM | > 100 µM |  | > 100 µM |  |  |  |  |  |  |  |  |  | 
12 | O=C(CSC(c1ccccc1)c1ccccc1)N/N=C/c1cccc(Cl)c1 | 32.7 µM | 41.7 µM | 38.6 µM | 28.8 µM |  |  | 40.1 µM | 29.1 µM | 33.2 µM | 23.7 µM | 17.3 µM | 17.3 µM | 19 µM | 19.6 µM | 15.2 µM |  | 11.4 µM |  | 15.1 µM | 15.7 µM
13 | CC(=O)c1c(C)n(C)c2c1nnc1ccccc12 | > 100 µM | > 100 µM | > 100 µM |  | > 100 µM | > 100 µM | > 100 µM | > 100 µM | > 100 µM | > 100 µM |  |  |  |  |  |  |  |  |  | 
14 | O=C1N(c2ccccc2)C(=O)C2(SC=NN2Cc2ccccc2)N1c1ccccc1 (centres undefined) | > 100 µM |  |  | > 100 µM | > 100 µM | > 100 µM | > 100 µM | > 100 µM | > 100 µM | > 100 µM |  |  |  |  |  |  |  |  |  | 
15 | O=C(Nc1ccc(CN2CCOCC2)cc1)c1[nH]ncc1Nc1ncnc2sccc12 | 7.96 µM | 4.33 µM | 16.7 µM | 23.6 µM | 16.8 µM |  | 13.8 µM | 12.3 µM | 10.1 µM | 0.638 µM | 0.48 µM | 0.311 µM | 0.517 µM | 0.277 µM | 0.578 µM | 0.629 µM | 0.223 µM |  | 0.306 µM | 0.217 µM
16 | CC1(C)CCc2cc3c(cc2O1)OCC1c2cc4c(cc2OC31)OCO4 (centres undefined) | > 100 µM | > 100 µM | > 100 µM | > 100 µM |  | > 100 µM | > 100 µM | > 100 µM | > 100 µM | > 100 µM |  |  |  |  |  |  |  |  |  | 
17 | COc1cnc2c(c1)C(=O)c1c-2n(CCCN2CCC(O)CC2)c(=O)c2cc(F)ccc12 | 0.925 µM | 0.63 µM |  | 2.24 µM | 9.8 µM |  | 0.32 µM | 0.591 µM |  | 0.628 µM | 0.211 µM |  | 0.109 µM |  | 0.301 µM | 1.39 µM | 0.201 µM |  | 0.0899 µM | 0.0895 µM
18 | COc1cccc2c1-c1c(c3ccc([N+](=O)[O-])cc3c(=O)n1CCCCl)C2=O | 17.4 µM | > 50 µM |  |  | > 50 µM | > 50 µM | > 50 µM | > 50 µM | > 50 µM | > 50 µM | 6.4 µM | > 50 µM | 3.69 µM |  |  | > 50 µM | 0.791 µM | > 50 µM | > 50 µM | 2.48 µM
